According to US11180474B2 (BRISTOL-MYERS SQUIBB COMPANY, priority 2016, dated 2021):
pIC50: −log10 of the molar value.

Legend:
[1] = biological target: T1, human TLR7 (Homo sapiens, UniProt Q9NYK1); experiment: TLR7 inhibition reporter assay (HEK-Blue cells, SEAP reporter, gardiquimod stimulation); type: cell-based; details: HEK-Blue cells overexpressing human TLR7, gardiquimod 7.5 μM
T1 construct: host or cells: HEK-Blue cells
T1 sequence (Q9NYK1 27-1049): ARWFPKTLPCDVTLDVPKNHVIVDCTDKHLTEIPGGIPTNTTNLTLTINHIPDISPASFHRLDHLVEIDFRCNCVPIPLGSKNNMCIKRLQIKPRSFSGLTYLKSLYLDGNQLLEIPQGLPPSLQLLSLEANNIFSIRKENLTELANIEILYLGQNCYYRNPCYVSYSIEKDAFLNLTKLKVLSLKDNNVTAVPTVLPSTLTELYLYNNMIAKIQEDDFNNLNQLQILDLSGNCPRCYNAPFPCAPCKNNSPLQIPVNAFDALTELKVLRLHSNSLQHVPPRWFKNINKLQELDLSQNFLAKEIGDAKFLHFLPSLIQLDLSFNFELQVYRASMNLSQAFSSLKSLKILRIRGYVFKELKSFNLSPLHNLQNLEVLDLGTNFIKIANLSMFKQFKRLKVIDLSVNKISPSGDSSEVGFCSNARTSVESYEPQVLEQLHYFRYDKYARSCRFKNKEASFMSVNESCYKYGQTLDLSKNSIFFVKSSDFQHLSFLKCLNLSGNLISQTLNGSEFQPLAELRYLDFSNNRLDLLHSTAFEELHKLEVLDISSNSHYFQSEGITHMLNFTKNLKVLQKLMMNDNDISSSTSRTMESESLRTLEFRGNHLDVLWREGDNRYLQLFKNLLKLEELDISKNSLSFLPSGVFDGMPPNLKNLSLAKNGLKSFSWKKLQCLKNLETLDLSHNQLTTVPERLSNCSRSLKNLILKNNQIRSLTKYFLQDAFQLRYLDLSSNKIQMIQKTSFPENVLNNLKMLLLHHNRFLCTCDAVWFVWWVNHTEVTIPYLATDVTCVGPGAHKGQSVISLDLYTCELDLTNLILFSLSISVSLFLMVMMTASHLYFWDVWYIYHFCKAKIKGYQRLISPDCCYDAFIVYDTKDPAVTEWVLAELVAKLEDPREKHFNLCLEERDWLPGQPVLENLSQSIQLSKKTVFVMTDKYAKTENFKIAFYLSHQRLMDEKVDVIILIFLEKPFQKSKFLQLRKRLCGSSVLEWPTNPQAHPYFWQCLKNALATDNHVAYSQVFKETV
Outline: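 SEAP readout via HEK-Blue Detection medium after 22 h at 37 °C, 5% CO2 defines inhibition, normalized between agonist-plus-DMSO wells and a reference inhibitor. Compound dose range 0.05 nM–50 μM; TLR7 cells at 15,000/well (gardiquimod), TLR8 at 20,000/well (R848).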

[2] = biological target: T2, human TLR9 (Homo sapiens, UniProt Q9NR96); experiment: TLR9 inhibition reporter assay (HEK-Blue cells, SEAP reporter, ODN2006 stimulation); type: cell-based; details: HEK-Blue cells overexpressing human TLR9, ODN2006 5 nM
T2 construct: host or cells: HEK-Blue cells
T2 sequence (Q9NR96 26-1032): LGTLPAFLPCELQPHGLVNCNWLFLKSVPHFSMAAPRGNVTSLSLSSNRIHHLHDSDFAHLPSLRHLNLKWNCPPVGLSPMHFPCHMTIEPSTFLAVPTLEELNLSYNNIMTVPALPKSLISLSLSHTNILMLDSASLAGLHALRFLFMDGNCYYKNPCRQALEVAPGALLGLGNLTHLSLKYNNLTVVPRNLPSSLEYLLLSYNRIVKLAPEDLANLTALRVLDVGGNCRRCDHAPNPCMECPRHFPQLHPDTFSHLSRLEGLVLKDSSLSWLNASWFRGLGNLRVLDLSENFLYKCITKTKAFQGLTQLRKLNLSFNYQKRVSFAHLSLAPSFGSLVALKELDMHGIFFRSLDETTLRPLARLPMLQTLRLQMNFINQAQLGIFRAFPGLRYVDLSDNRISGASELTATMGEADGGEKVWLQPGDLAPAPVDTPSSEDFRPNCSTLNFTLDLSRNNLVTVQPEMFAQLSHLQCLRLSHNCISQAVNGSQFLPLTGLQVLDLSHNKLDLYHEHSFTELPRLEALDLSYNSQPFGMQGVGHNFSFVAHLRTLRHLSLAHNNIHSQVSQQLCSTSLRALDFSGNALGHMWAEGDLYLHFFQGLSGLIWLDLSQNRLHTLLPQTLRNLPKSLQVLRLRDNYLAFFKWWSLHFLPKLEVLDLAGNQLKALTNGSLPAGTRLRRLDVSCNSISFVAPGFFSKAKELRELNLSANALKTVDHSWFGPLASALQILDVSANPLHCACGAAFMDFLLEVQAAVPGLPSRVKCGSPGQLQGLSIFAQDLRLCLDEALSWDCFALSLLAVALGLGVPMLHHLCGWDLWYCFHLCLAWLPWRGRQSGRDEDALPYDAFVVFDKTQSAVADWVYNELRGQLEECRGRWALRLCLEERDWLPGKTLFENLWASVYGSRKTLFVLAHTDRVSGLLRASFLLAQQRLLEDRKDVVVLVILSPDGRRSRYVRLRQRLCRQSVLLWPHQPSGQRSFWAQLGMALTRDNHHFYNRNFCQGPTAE
Outline: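 HEK-Blue cells overexpressing human TLR7, TLR8 or TLR9 carry a SEAP reporter driven by NF-κB/AP-1 sites. Compounds (0.05 nM–50 μM) were preincubated 30 min at room temperature, then cells were stimulated with gardiquimod 7.5 μM (TLR7), R848 15.9 μM (TLR8) or ODN2006 5 nM (TLR9) for 22 h at 37 °C.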

| pIC50 [1] | pIC50 [2] | Structure (SMILES) |
| --- | --- | --- |
| 7.35 | 5.04 | COc1ccc(-c2[nH]c3ccc(C4CCNCC4F)cc3c2C(C)C)cc1OC (racemic) [Example 319, 2-(3,4-dimethoxyphenyl)-5-(3-fluoropiperidin-4-yl)-3-isopropyl-1H-indole] |
| 7.15 | 5.30 | COc1ccc(-c2[nH]c3ccc(C4CCNCC4F)cc3c2C(C)C)cc1OC (racemic) [Example 320, 2-(3,4-dimethoxyphenyl)-5-(3-fluoropiperidin-4-yl)-3-isopropyl-1H-indole] |
| 7.66 | 5.35 | COc1ccc(-c2[nH]c3ccc(C4CCNCC4F)cc3c2C(C)C)cc1OC (single isomer, unassigned) [Example 321, 2-(3,4-dimethoxyphenyl)-5-(3-fluoropiperidin-4-yl)-3-isopropyl-1H-indole] |
| 7.68 | 5.55 | COc1ccc(-c2[nH]c3ccc(C4CCNCC4F)cc3c2C(C)C)cc1OC (single isomer, unassigned) [Example 322, 2-(3,4-dimethoxyphenyl)-5-(3-fluoropiperidin-4-yl)-3-isopropyl-1H-indole] |
| 7.38 | 5.54 | COc1ccc(-c2[nH]c3ccc(C4CCNCC4F)cc3c2C(C)C)cc1OC (single isomer, unassigned) [Example 323, 2-(3,4-dimethoxyphenyl)-5-(3-fluoropiperidin-4-yl)-3-isopropyl-1H-indole] |
| 7.29 | 5.45 | COc1ccc(-c2[nH]c3ccc(C4CCNCC4F)cc3c2C(C)C)cc1OC (single isomer, unassigned) [Example 324, 2-(3,4-dimethoxyphenyl)-5-(3-fluoropiperidin-4-yl)-3-isopropyl-1H-indole] |
| ≤ 4.30 | 4.76 | CCN1CCCC(N2CCC(c3ccc4[nH]c(-c5ccc(OC)c(OC)c5)c(C)c4c3)CC2)C1 (stereo not shown) [Example 24, 2-(3,4-dimethoxyphenyl)-5-(1′-ethyl-[1,3′-bipiperidin]-4-yl)-3-methyl-1H-indole] |
| 6.57 | ≤ 4.30 | COc1ccc(-c2[nH]c3ccc(C4CCNCC4(F)F)cc3c2C(C)C)cc1OC (stereo not shown) [Example 325, 5-(3,3-difluoropiperidin-4-yl)-2-(3,4-dimethoxyphenyl)-3-isopropyl-1H-indole] |
| 6.90 | ≤ 4.30 | COc1ccc(-c2[nH]c3ccc(C4CCNC(=O)C4)cc3c2C(C)C)cc1OC (stereo not shown) [Example 326, 4-(2-(3,4-dimethoxyphenyl)-3-isopropyl-1H-indol-5-yl)piperidin-2-one] |
| 7.82 | 5.94 | COc1ccc(-c2[nH]c3ccc(C4CCNCC4)cc3c2CC(F)(F)F)cc1OC [Example 329, 2-(3,4-dimethoxyphenyl)-5-(piperidin-4-yl)-3-(2,2,2-trifluoroethyl)-1H-indole] |
| 7.24 | 5.79 | COc1ccc(-c2[nH]c3ccc(C4CCN(C(=O)CCN5CCCCC5)CC4)cc3c2CC(F)(F)F)cc1OC [Example 330, 1-(4-(2-(3,4-dimethoxyphenyl)-3-(2,2,2-trifluoroethyl)-1H-indol-5-yl)piperidin-1-yl)-3-(piperidin-1-yl)propan-1-one] |
| 7.48 | 5.28 | COc1ccc(-c2[nH]c3ccc(C4CCN(C(=O)CCCn5ccnc5)CC4)cc3c2CC(F)(F)F)cc1OC [Example 331, 1-(4-(2-(3,4-dimethoxyphenyl)-3-(2,2,2-trifluoroethyl)-1H-indol-5-yl)piperidin-1-yl)-4-(1H-imidazol-1-yl)butan-1-one] |
| 5.73 | ≤ 4.30 | COc1ccc(-c2[nH]c3ccc(C4CCN(C(=O)Cc5c[nH]c6ccccc56)CC4)cc3c2CC(F)(F)F)cc1OC [Example 332, 1-(4-(2-(3,4-dimethoxyphenyl)-3-(2,2,2-trifluoroethyl)-1H-indol-5-yl)piperidin-1-yl)-2-(1H-indol-3-yl)ethan-1-one] |
| 7.03 | ≤ 4.30 | COc1ccc(-c2[nH]c3ccc(C4CCN(C(=O)CCC(N)=O)CC4)cc3c2CC(F)(F)F)cc1OC [Example 333, 4-(4-(2-(3,4-dimethoxyphenyl)-3-(2,2,2-trifluoroethyl)-1H-indol-5-yl)piperidin-1-yl)-4-oxobutanamide] |
| 6.89 | 5.11 | COc1ccc(-c2[nH]c3ccc(C4CCN(C(=O)Cc5c[nH]cn5)CC4)cc3c2CC(F)(F)F)cc1OC [Example 334, 1-(4-(2-(3,4-dimethoxyphenyl)-3-(2,2,2-trifluoroethyl)-1H-indol-5-yl)piperidin-1-yl)-2-(1H-imidazol-4-yl)ethan-1-one] |
| 6.48 | 4.82 | COc1ccc(-c2[nH]c3ccc(C4CCN(C(=O)Cc5cccnc5)CC4)cc3c2CC(F)(F)F)cc1OC [Example 335, 1-(4-(2-(3,4-dimethoxyphenyl)-3-(2,2,2-trifluoroethyl)-1H-indol-5-yl)piperidin-1-yl)-2-(pyridin-3-yl)ethan-1-one] |
| 6.44 | 4.56 | COc1ccc(-c2[nH]c3ccc(C4CCN(C(=O)[C@@H]5CCCN5C(C)=O)CC4)cc3c2CC(F)(F)F)cc1OC [Example 336, (S)-1-(2-(4-(2-(3,4-dimethoxyphenyl)-3-(2,2,2-trifluoroethyl)-1H-indol-5-yl)piperidine-1-carbonyl)pyrrolidin-1-yl)ethan-1-one] |
| 5.45 | ≤ 4.30 | COc1ccc(-c2[nH]c3ccc(C4CCN(C(=O)CCn5ccc6ccccc65)CC4)cc3c2CC(F)(F)F)cc1OC [Example 337, 1-(4-(2-(3,4-dimethoxyphenyl)-3-(2,2,2-trifluoroethyl)-1H-indol-5-yl)piperidin-1-yl)-3-(1H-indol-1-yl)propan-1-one] |
| 5.83 | ≤ 4.30 | COc1ccc(-c2[nH]c3ccc(C4CCN(C(=O)Cc5ccc(N(C)C)cc5)CC4)cc3c2CC(F)(F)F)cc1OC [Example 338, 1-(4-(2-(3,4-dimethoxyphenyl)-3-(2,2,2-trifluoroethyl)-1H-indol-5-yl)piperidin-1-yl)-2-(4-(dimethylamino)phenyl)ethan-1-one] |
| 6.48 | ≤ 4.30 | COc1ccc(-c2[nH]c3ccc(C4CCN(C(=O)CC(F)(F)F)CC4)cc3c2CC(F)(F)F)cc1OC [Example 339, 1-(4-(2-(3,4-dimethoxyphenyl)-3-(2,2,2-trifluoroethyl)-1H-indol-5-yl)piperidin-1-yl)-3,3,3-trifluoropropan-1-one] |
